Values quoted from earlier work in patent US20260166148A1, “MAGNETOSTRICTIVE PIEZOELECTRIC NANOASSEMBLY AS CANCER CHEMOTHERAPEUTIC” (GRANT DEMARTINO INDUSTRIES LLC, priority 2021, published 2026).

Key:
[1] = as studied by Jun Yang et al. [18]

water solubility [1]	Compound	IC50 values in human tumor cells (human tumor cells; when activated (photosensitizer irradiated))	apoptosis induction, killing the cells (cellular effect) (human tumor cells; when activated, human tumor cells)
–	COc1ccc(C2=[N+]3C(=Nc4c(-c5ccccc5)c(Br)c(-c5ccc(OC)cc5)n4[B-]3(F)F)C(c3ccccc3)=C2Br)cc1 [ADPM06]	micromolar range	induces apoptosis
excellent	CC(C)(N=NC(C)(C)C1=NCCN1)C1=NCCN1.Cl.Cl [AIPH, 2,2′-Azobis(2-(2-imidazolin-2-yl)propane) dihydrochloride]	–	–
